The record followed here is article PMC10178166, “NanoLuc Luciferase as a Fluorogen-Activating Protein for GFP Chromophore Based Fluorogens” (International Journal of Molecular Sciences, 2023).

In this test the target is T1, NanoLuc (Oplophorus gracilirostris, UniProt Q9GV45, A31E/A60N/A81I/F95D/I117V/K70R/L54V/L99Q/M102K/N193R/P142E/Q151K/Q38R/Q45L/V71I/Y165I).
T1 construct: Engineered 19 kDa subunit variant (NanoLuc, about 171 residues, no signal peptide)
In words: spectrofluorometric titration. The format is binding. The source says:
spectrofluorometric titration on NanoLuc

Like-named read-outs stand apart in the source and are kept apart here.

T1 sequence (Q9GV45 28-196 with the stated changes): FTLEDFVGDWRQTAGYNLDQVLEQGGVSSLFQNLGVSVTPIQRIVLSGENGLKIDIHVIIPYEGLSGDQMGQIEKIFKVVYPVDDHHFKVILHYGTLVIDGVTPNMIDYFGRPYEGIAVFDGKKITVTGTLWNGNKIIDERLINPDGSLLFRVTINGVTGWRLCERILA

In the case of `O=C1/C(=C/c2ccc[nH]2)N=C(/C=C/c2ccccc2)N1CCc1ccc(O)cc1` (mixture of isomers) [4cc], the Kd (read-out: [drawing 3] / [drawing 7] / 4cc) was found to be 550 ± 40 nM.

For the molecule `O=C1/C(=C/c2ccc[nH]2)N=C(/C=C/c2ccccc2)N1Cc1ccccc1` (mixture of isomers) [4bc], where the note is “read-out: [drawing 2] / [drawing 5] / 4bc”, the Kd came out at 590 ± 40 nM. `O=C1/C(=C/c2ccc[nH]2)N=C(/C=C/c2cccs2)N1Cc1ccccc1` (mixture of isomers) [4bh]: the Kd (read-out: [drawing 2] / [drawing 4] / 4bh) turned out to be 320 ± 20 nM.
